What was measured:
participants with ET = test: Phase 2 trial Part B: Beck Depression Inventory (BDI-II); type: in vivo, human
Description: The Beck Depression Inventory (BDI-II) is a list of 21 common symptoms of depression (Beck et al 1996). Each item is scored on a 4-point Likert scale (range of scores is 0 through 3). The time frame for assessment is the […] or since the last assessment. The BDI-II is divided into 2 subscales: Affective and Somatic. The subscale scores are calculated as the sum of the items comprising each subscale. The total score is calculated as the sum of all 21 items and ranges from 0 to 63. A total score of 0 to 13 indicates minimal depressive symptoms. A total score of 14 to 19 indicates mild depressive symptoms. A total score of 20 to 28 indicates moderate depressive symptoms. A total score of 29 to 63 indicates severe depressive symptoms. The BDI-II is assessed at screening to exclude participants with moderate to severe depressive symptoms. […] In both phases, key safety measures included clinical laboratory evaluations, 12-lead ECG, C-SSRS, and vital signs. Key efficacy assessments included the TETRAS Performance subscale, TETRAS Upper Limb using accelerometry, CGI, PGI-C, TETRAS ADL Subscale, QUEST, BDI-II, and BAI. Blood samples were obtained for the determination of study drug and metabolite plasma concentrations.

[1] = tested on: Harmaline induced tremor activity in male Sprague Dawley (SD) rats; test: Harmaline-induced tremor activity measured with a piezoelectric plate; type: in vivo, rat; conditions: harmaline 30 mg/kg i.p., 1 mg/kg p.o. alone
Description: This study sought to evaluate the effects of the HCl salt of the compound of Formula (I) (the “study drug”) administered alone (1 mg/kg, p.o.) or in combination with propranolol (1 and 3 mg/kg, i.p. at 20 min prior) in Harmaline (10 or 30 mg/kg, i.p.) induced tremor activity measured with a piezoelectric plate in male Sprague Dawley (SD) rats.
Rats were fed ad lib and kept at a 12:12 light-dark cycle throughout the study. There were N=15 in each group. Harmaline and propranolol were each formulated with saline using a volume of 5 ml/kg bodyweight. Vehicle for the study drug (1 mg/kg) was 0.5% methyl cellulose/0.1% Tween-80 in water.
1) Rats were allowed to acclimate in standard laboratory animal facility conditions for at least 5-7 days prior to use. 2) Rat was put in a Plexiglas chamber with a piezoelectric plate attached at the bottom to transduce tremor behavior into electronic signal. […] 3) One day prior to the first testing day, a naive rat was put in the testing chamber to confirm that the spontaneous activity baseline was within the range of 3000-10000 uv, as this sensitivity level generally allows all the tremor signal to be detected with the system. […] 11) Post-harmaline effect was measured for 20 min (10-30 min). […]

[2] = tested on: harmaline-induced decrease in travelling distance in male SD rats; test: Open field test with harmaline in SD rats; type: in vivo, rat; conditions: harmaline 30 mg/kg, dose of 3 and 10 mg/kg
Description: (§1) Each of six groups of male SD rats were subjected to a tremor assessment, followed by three ADL-like measures including open field test, rotarod test, and wire grip test after receiving doses of either vehicle, Formula (I), or propranolol, followed by either saline or harmaline, as outlined below in Table 22 below.
Fifteen minutes after the tremor assessment, the rats were subjected to an open field test. FIG. 8 is a bar graph showing the traveling distance in 0-5 minutes (mm) measured in rats that were administered 30 mg/kg harmaline and also administered 10 mg/kg propranolol or 1 mg/kg, 3 mg/kg or 10 mg/kg study drug.

[3] = tested on: harmaline-induced motor impairment in male SD rats; test: Rotarod test with harmaline in SD rats; type: in vivo, rat; conditions: harmaline 30 mg/kg, dose of 3 and 10 mg/kg
Description: as §1
Fifteen minutes after the open field test, the rats were subjected to a rotarod test. The speed of the rotarod increased from 10 rpms to 60 rpms within the first five minutes of the test. FIG. 9 is a bar graph showing the mean of latency to fall in the rotarod test measured in rats that were administered 30 mg/kg harmaline and also administered 10 mg/kg propranolol or 1 mg/kg, 3 mg/kg or 10 mg/kg study drug.

[4] = Part B OLT (FAS), Day 7, n = 13
[5] = Part B OLT (FAS), Day 21, n = 12
[6] = Part B OLT (FAS), Day 42, n = 10
[7] = Part B RWD (RWAS), Day 56, Study drug, n = 6
[8] = Part B RWD (RWAS), Day 70, Study drug, n = 5
[9] = listed as compound of Formula (I)

CC(C)(C)NC(=O)CN1CCC(CNC(=O)c2cc(F)cc(Cl)c2)CC1.Cl [Study drug]
BDI-II Depressive Symptoms Mild (14-19) (participants with ET; [4]): 1 n (%)
BDI-II Depressive Symptoms Minimal (0-13) (participants with ET; [4]): 12 n (%)
BDI-II Depressive Symptoms Moderate (20-28) (participants with ET; [4]): 0 n (%)
BDI-II Depressive Symptoms Severe (29-63) (participants with ET; [4]): 0 n (%)
BDI-II Depressive Symptoms Mild (14-19) (participants with ET; [5]): 1 n (%)
BDI-II Depressive Symptoms Minimal (0-13) (participants with ET; [5]): 11 n (%)
BDI-II Depressive Symptoms Moderate (20-28) (participants with ET; [5]): 0 n (%)
BDI-II Depressive Symptoms Severe (29-63) (participants with ET; [5]): 0 n (%)
BDI-II Depressive Symptoms Mild (14-19) (participants with ET; [6]): 0 n (%)
BDI-II Depressive Symptoms Minimal (0-13) (participants with ET; [6]): 10 n (%)
BDI-II Depressive Symptoms Moderate (20-28) (participants with ET; [6]): 0 n (%)
BDI-II Depressive Symptoms Severe (29-63) (participants with ET; [6]): 0 n (%)
BDI-II Depressive Symptoms Mild (14-19) (participants with ET; [7]): 0 n (%)
BDI-II Depressive Symptoms Minimal (0-13) (participants with ET; [7]): 6 n (%)
BDI-II Depressive Symptoms Moderate (20-28) (participants with ET; [7]): 0 n (%)
BDI-II Depressive Symptoms Severe (29-63) (participants with ET; [7]): 0 n (%)
BDI-II Depressive Symptoms Mild (14-19) (participants with ET; [8]): 1 n (%)
BDI-II Depressive Symptoms Minimal (0-13) (participants with ET; [8]): 4 n (%)
BDI-II Depressive Symptoms Moderate (20-28) (participants with ET; [8]): 0 n (%)
BDI-II Depressive Symptoms Severe (29-63) (participants with ET; [8]): 0 n (%)
change in BDI-II scores (participants with ET; Part B, pre-dose baseline to Day 70): no clinically meaningful change over time
harmaline-induced tremor (tremor power in the 8-13 Hz and 6-15 Hz bands) [1]: significantly reduces
travelling distance in 0-5 minutes in open field vs vehicle and harmaline only ([2]; listed as Formula (I)): significantly attenuated
travelling distance in 0-5 minutes in open field vs vehicle and harmaline only [2, 9]: significantly attenuated decrease
latency to fall in rotarod test vs vehicle and harmaline only ([3]; listed as Formula (I)): significantly attenuated
latency to fall in rotarod test vs vehicle and harmaline only [3, 9]: significant attenuation of motor impairment

Reference: patent publication US20250170114A1, “METHODS OF TREATMENT USING T-TYPE CALCIUM CHANNEL MODULATORS” (Praxis Precision Medicines, Inc., priority 2022, published 2025)
